Tests used:
[1] = molecular target: T1, Alpha-1D adrenergic receptor (Homo sapiens, UniProt P25100); type: cell membranes, HEK293, Membrane; details: hek293; note: in other assays of this panel Not Active means under 50% inhibition at 10 µM
T1 sequence (P25100 whole entry): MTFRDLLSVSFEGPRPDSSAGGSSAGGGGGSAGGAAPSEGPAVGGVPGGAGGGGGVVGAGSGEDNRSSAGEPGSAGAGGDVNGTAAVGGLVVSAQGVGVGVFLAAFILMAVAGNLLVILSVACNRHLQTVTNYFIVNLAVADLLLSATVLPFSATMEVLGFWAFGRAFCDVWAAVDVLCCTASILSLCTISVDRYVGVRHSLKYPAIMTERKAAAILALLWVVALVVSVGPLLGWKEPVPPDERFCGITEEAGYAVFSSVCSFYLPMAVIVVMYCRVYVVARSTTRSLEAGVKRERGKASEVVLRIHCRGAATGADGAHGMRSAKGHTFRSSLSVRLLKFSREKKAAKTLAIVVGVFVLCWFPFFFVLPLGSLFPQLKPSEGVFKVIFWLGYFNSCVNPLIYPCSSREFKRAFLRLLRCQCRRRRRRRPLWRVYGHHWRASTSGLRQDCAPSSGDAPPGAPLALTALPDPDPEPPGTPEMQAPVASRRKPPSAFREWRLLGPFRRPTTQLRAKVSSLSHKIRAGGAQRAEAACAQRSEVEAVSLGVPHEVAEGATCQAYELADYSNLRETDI

[2] = molecular target: T2, Alpha-2C adrenergic receptor (Homo sapiens, UniProt P18825); test: DRUGMATRIX: Adrenergic Alpha-2C radioligand binding (ligand: [3H] MK-912); type: cell membranes, Sf9, Membrane; details: sf9
T2 sequence (P18825 whole entry): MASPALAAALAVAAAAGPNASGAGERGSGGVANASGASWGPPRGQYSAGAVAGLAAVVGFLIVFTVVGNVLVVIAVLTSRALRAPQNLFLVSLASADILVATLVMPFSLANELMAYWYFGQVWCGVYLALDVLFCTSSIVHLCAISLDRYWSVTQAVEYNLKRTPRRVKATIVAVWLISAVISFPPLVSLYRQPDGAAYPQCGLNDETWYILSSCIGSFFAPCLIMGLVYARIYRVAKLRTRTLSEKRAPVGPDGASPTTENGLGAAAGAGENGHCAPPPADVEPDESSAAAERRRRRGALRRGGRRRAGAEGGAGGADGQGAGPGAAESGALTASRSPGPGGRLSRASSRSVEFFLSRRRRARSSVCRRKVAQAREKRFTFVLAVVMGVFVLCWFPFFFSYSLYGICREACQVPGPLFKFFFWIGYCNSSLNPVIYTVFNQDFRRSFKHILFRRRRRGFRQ

[3] = molecular target: Beta-2 adrenergic receptor (Homo sapiens, UniProt P07550); test: DRUGMATRIX: Adrenergic beta2 radioligand binding (ligand: [3H] CGP-12177); type: cell membranes, Membrane; details: cho; Not Active = under 50% inhibition at 10 µM
[4] = molecular target: Aldo-keto reductase family 1 member B1 (Rattus norvegicus, UniProt P07943); type: tissue-based, Lens of camera-type eye;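 note: inhibition of aldose reductase enzyme activity, measured with DL-glyceraldehyde as the substrate; in other assays of this panel Not Active means under 50% inhibition at 10 µM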
[5] = DRUGMATRIX: Tumor Necrosis Factor (TNF), Non-Selective radioligand binding (ligand: [125I] TNF-alpha); type: cell membranes, Membrane; details: u-937; Not Active = under 50% inhibition at 10 µM
[6] = molecular target: T3, Vasoactive intestinal polypeptide receptor 1 (Homo sapiens, UniProt P32241); type: cell membranes, Membrane; details: ht-29; note: in other assays of this panel Not Active means under 50% inhibition at 10 µM
T3 sequence (P32241 whole entry): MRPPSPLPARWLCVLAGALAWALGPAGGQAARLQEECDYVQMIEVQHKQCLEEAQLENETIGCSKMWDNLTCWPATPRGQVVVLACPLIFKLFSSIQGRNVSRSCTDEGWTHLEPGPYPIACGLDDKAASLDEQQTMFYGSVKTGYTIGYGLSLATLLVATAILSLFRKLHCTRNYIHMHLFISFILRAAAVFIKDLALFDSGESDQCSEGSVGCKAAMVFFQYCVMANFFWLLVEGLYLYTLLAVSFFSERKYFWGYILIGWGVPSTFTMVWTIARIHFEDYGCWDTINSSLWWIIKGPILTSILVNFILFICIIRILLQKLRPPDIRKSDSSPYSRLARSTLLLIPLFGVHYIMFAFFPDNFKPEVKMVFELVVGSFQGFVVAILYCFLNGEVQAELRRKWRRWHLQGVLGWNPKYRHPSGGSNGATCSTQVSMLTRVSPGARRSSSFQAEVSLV

[7] = DRUGMATRIX: Nicotinic Acetylcholine radioligand binding (ligand: [125I] Epibatidine); type: cell membranes, Membrane; details: imr-32; Not Active = under 50% inhibition at 10 µM
[8] = molecular target: Mu-type opioid receptor (Homo sapiens, UniProt P35372); test: DRUGMATRIX: Opiate mu (OP3, MOP) radioligand binding (ligand: [3H] Diprenorphine); type: cell membranes, CHO-K1, Membrane; details: cho-k1; Not Active = under 50% inhibition at 10 µM
[9] = DRUGMATRIX: Platelet-Derived Growth Factor (PDGF) radioligand binding (ligand: [125I] PDGF); type: cell-based; details: nih3t3; Not Active = under 50% inhibition at 10 µM
[10] = molecular target: T4, Cathepsin G (Homo sapiens, UniProt P08311); type: tissue-based; details: neutrophil;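 note: inhibition of Cathepsin G enzyme activity, tested on an AMC-conjugated peptide substrate; in other assays of this panel Not Active means under 50% inhibition at 10 µM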
T4 sequence (P08311 whole entry): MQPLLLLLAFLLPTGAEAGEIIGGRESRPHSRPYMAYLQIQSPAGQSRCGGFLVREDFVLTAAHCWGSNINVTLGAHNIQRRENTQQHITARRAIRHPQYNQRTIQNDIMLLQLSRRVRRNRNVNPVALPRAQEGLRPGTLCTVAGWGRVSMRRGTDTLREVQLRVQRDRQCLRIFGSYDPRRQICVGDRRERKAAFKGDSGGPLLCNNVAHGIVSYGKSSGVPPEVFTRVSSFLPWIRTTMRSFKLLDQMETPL

[11] = molecular target: Mitogen-activated protein kinase 1 (Homo sapiens, UniProt P28482); test: DRUGMATRIX: Protein Serine/Threonine Kinase, ERK2 enzyme inhibition (substrate: Myelin Basic Protein); design: species or system Escherichia coli; details: Not Active = under 50% inhibition at 10 µM
[12] = molecular target: 5-hydroxytryptamine receptor 1B (Rattus norvegicus, UniProt P28564); type: cell membranes, Wistar, Cerebral cortex, Membrane; note: in other assays of this panel Not Active means under 50% inhibition at 10 µM
[13] = molecular target: Cytochrome P450 2E1 (Homo sapiens, UniProt P05181); details: bti-tn-5b1-4; note: in other assays of this panel Not Active means under 50% inhibition at 10 µM
Chain of Cytochrome P450 2E1 (P05181 whole entry): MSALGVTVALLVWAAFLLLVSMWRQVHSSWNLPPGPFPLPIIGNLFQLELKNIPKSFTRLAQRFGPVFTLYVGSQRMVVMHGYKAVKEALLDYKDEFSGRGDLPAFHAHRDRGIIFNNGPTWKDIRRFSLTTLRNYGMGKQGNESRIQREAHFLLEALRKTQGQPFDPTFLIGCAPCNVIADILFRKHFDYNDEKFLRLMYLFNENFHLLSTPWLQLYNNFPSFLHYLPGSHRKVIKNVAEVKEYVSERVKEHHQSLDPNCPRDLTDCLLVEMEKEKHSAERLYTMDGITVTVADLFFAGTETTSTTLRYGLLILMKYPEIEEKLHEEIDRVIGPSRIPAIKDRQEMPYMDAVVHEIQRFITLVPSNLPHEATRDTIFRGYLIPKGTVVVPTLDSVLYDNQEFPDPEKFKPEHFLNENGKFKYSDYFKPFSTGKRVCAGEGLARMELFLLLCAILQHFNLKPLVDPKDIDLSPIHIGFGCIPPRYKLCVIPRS

Chain of Mu-type opioid receptor (P35372 whole entry): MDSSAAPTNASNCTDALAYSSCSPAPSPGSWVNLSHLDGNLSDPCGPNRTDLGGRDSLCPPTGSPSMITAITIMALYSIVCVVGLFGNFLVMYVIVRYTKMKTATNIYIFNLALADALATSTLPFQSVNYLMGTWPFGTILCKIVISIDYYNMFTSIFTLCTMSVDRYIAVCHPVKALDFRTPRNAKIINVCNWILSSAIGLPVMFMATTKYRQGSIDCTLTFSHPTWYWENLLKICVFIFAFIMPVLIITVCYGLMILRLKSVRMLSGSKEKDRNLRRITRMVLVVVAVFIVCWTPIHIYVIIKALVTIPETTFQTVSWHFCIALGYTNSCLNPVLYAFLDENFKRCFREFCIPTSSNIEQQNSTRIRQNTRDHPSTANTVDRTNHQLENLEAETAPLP
Chain of Beta-2 adrenergic receptor (P07550 whole entry): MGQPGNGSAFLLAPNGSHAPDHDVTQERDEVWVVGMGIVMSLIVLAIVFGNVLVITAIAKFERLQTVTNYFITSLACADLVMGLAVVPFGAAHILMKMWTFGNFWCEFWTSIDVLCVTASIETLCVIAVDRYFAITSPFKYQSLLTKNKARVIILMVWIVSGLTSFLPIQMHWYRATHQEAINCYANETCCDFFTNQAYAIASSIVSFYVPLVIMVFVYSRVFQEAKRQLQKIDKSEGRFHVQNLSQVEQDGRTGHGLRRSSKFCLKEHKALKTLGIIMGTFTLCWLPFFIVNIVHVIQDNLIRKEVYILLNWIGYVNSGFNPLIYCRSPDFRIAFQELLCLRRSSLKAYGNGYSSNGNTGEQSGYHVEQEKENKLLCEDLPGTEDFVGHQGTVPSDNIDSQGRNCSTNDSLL
Chain of Mitogen-activated protein kinase 1 (P28482 whole entry): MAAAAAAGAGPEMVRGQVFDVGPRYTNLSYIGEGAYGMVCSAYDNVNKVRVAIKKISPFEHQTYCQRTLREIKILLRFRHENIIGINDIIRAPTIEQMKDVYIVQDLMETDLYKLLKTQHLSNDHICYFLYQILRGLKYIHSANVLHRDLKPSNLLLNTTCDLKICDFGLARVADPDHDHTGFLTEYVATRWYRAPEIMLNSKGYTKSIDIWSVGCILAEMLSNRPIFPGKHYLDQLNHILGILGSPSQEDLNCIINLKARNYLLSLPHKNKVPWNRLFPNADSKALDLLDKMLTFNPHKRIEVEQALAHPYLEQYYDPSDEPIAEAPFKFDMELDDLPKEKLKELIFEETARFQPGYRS
Chain of 5-hydroxytryptamine receptor 1B (P28564 whole entry): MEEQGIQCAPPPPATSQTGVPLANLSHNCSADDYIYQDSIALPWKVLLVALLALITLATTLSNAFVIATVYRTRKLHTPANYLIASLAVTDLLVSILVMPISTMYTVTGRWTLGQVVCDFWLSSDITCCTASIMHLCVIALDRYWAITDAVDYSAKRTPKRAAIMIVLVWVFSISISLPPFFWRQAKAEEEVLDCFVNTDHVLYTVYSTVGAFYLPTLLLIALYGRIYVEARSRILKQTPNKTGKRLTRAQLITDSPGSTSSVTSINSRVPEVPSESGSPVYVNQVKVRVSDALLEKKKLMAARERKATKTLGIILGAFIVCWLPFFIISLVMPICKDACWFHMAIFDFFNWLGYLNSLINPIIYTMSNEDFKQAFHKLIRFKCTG

O=c1cc(-c2ccccc2)oc2c1ccc1ccccc12 [ALPHA-NAPHTHOFLAVONE]
Not Active: IC50 [1] | IC50 [2] | IC50 [3] | IC50 [4] | IC50 [5] | Ki [5] | IC50 [6] | IC50 [7] | Ki [7] | IC50 [8] | IC50 [9] | Ki [9] | IC50 [10] | IC50 [11] | IC50 [12] | IC50 [13] | Ki [13]

NCC[C@H](O)C(=O)N[C@@H]1C[C@H](N)[C@@H](O[C@H]2O[C@H](CN)[C@@H](O)[C@H](O)[C@H]2O)[C@H](O)[C@H]1O[C@H]1O[C@H](CO)[C@@H](O)[C@H](N)[C@H]1O [AMIKACIN]
Not Active: IC50 [1] | IC50 [2] | IC50 [3] | IC50 [4] | IC50 [5] | Ki [5] | IC50 [6] | IC50 [7] | Ki [7] | IC50 [8] | IC50 [9] | Ki [9] | IC50 [10] | IC50 [11] | IC50 [12] | IC50 [13] | Ki [13]

CC1(C)S[C@@H]2[C@H](NC(=O)[C@H](N)c3ccc(O)cc3)C(=O)N2[C@H]1C(=O)O [AMOXICILLIN]
Not Active: IC50 [1] | IC50 [2] | IC50 [3] | IC50 [4] | IC50 [5] | Ki [5] | IC50 [6] | IC50 [7] | Ki [7] | IC50 [8] | IC50 [9] | Ki [9] | IC50 [10] | IC50 [11] | IC50 [12] | IC50 [13] | Ki [13]

CCOC(=O)OC(C)OC1=C(C(=O)Nc2ccccn2)N(C)S(=O)(=O)c2ccccc21 (configuration not stated) [AMPIROXICAM]
Not Active: IC50 [1] | IC50 [2] | IC50 [3] | IC50 [4] | IC50 [5] | Ki [5] | IC50 [6] | IC50 [7] | Ki [7] | IC50 [8] | IC50 [9] | Ki [9] | IC50 [10] | IC50 [11] | IC50 [12] | IC50 [13] | Ki [13]

N=C(N)NCCCCNC(=N)N.O=S(=O)(O)O [ARCAINE SULFATE]
Not Active: IC50 [1] | IC50 [2] | IC50 [3] | IC50 [4] | IC50 [5] | Ki [5] | IC50 [6] | IC50 [7] | Ki [7] | IC50 [8] | IC50 [9] | Ki [9] | IC50 [10] | IC50 [11] | IC50 [12] | IC50 [13] | Ki [13]

Cn1cnc([N+](=O)[O-])c1Sc1ncnc2nc[nH]c12 [AZATHIOPRINE]
Not Active: IC50 [1] | IC50 [2] | IC50 [3] | IC50 [4] | IC50 [5] | Ki [5] | IC50 [6] | IC50 [7] | Ki [7] | IC50 [8] | IC50 [9] | Ki [9] | IC50 [10] | IC50 [11] | IC50 [12] | IC50 [13] | Ki [13]
